Source: patent US11753397B2, “Cereblon binders for the degradation of ikaros” (C4 Therapeutics, Inc., priority 2018, dated 2023)

Test system: NCIH929.1 cells
Assay: Cell viability assay (CellTiter-Glo 2.0, ATP quantification)
Format: cell-based
Conditions: NCIH929.1 cell viability, CellTiter-Glo 2.0, 96 hr incubation, top concentration 1 μM
Experimental: Example 59. Cell Viability Assay
RPMI 1640 medium, fetal bovine serum (FBS) and 2-mercaptoethanol were purchased from Gibco (Grand Island, N.Y., USA). CellTiter-Glo® 2.0 Assay was purchased from Promega (Madison, Wis., USA). NCIH929.1 cell line was purchased from ATCC (Manassas, Va., USA). Cell culture flasks and 384-well microplates were acquired from VWR (Radnor, Pa., USA).
NCIH929.1 cell viability was determined based on quantification of ATP using CellTiter-Glo® 2.0 luminescent Assay kit, which signals the presence of metabolically-active cells. Briefly, the test compound was added to 384-well plates at a top concentration of 1 μM with 10 points, half log titration in duplicates. NCIH929.1 cells were seeded into the 384-well plates in RPMI medium containing 10% FBS and 0.05 mM 2-mercaptoethanol at a cell density of 750 cells per well. Cells treated in the absence of the test compound were the negative control and cells treated in the absence of CellTiter-Glo® 2.0 were the positive control. At the same day of compound treatment, CellTiter-Glo® 2.0 was added to a plate with cells treated in the absence of the test compound to establish Cytostatic control value (CT0). Cells treated with the test compound were incubated at 37° C. with 5% CO2 for 96 hr. CellTiter-Glo reagent was then added to the cells and luminescence was acquired on EnVision™ Multilabel Reader (PerkinElmer, Santa Clara, Calif., USA).

Row | SMILES | GI50 [nM]
1 | O=C1CCC(N2C(=O)c3cccc(NCc4cnn(C5CCN(C(=O)C6CC(F)(F)C6)CC5)c4)c3C2=O)C(=O)N1 (centres unmarked) [Compound 29, 4-(((1-(1-(3,3-difluorocyclobutane-1-carbonyl)piperidin-4-yl)-1H-pyrazol-4-yl)methyl)amino)-2-(2,6-dioxopiperidin-3-yl)isoindoline-1,3-dione] | < 100
2 | O=C1CCC(N2C(=O)c3cccc(NCc4cnn(C5CCN(C(=O)CCC(F)(F)F)CC5)c4)c3C2=O)C(=O)N1 (centres unmarked) [Compound 30, 2-(2,6-dioxopiperidin-3-yl)-4-(((1-(1-(4,4,4-trifluorobutanoyl)piperidin-4-yl)-1H-pyrazol-4-yl)methyl)amino)isoindoline-1,3-dione] | < 100
3 | COCC(=O)N1CCC(n2cc(CNc3cccc4c3C(=O)N(C3CCC(=O)NC3=O)C4=O)cn2)CC1 (centres unmarked) [Compound 31, 2-(2,6-dioxopiperidin-3-yl)-4-(((1-(1-(2-methoxyacetyl)piperidin-4-yl)-1H-pyrazol-4-yl)methyl)amino)isoindoline-1,3-dione] | < 100
4 | O=C1CCC(N2C(=O)c3cccc(NCc4cnn(C5CCN(C(=O)C6CCCC6)CC5)c4)c3C2=O)C(=O)N1 (centres unmarked) [Compound 32, 4-(((1-(1-(cyclopentanecarbonyl)piperidin-4-yl)-1H-pyrazol-4-yl)methyl)amino)-2-(2,6-dioxopiperidin-3-yl)isoindoline-1,3-dione] | < 100
5 | CC1(C(=O)N2CCC(n3cc(CNc4cccc5c4C(=O)N(C4CCC(=O)NC4=O)C5=O)cn3)CC2)CCC1 (centres unmarked) [Compound 33, 2-(2,6-dioxopiperidin-3-yl)-4-(((1-(1-(1-methylcyclobutane-1-carbonyl)piperidin-4-yl)-1H-pyrazol-4-yl)methyl)amino)isoindoline-1,3-dione] | < 1
6 | Cn1cc(C(=O)N2CCC(n3cc(CNc4cccc5c4C(=O)N(C4CCC(=O)NC4=O)C5=O)cn3)CC2)cn1 (centres unmarked) [Compound 34, 2-(2,6-dioxopiperidin-3-yl)-4-(((1-(1-(1-methyl-1H-pyrazole-4-carbonyl)piperidin-4-yl)-1H-pyrazol-4-yl)methyl)amino)isoindoline-1,3-dione] | < 100
7 | CCCC(=O)N1CCC(n2cc(CNc3cccc4c3C(=O)N(C3CCC(=O)NC3=O)C4=O)cn2)CC1 (centres unmarked) [Compound 35, 4-(((1-(1-butyrylpiperidin-4-yl)-1H-pyrazol-4-yl)methyl)amino)-2-(2,6-dioxopiperidin-3-yl)isoindoline-1,3-dione] | < 100
8 | CC1(C(=O)N2CCC(n3cc(CNc4cccc5c4C(=O)N(C4CCC(=O)NC4=O)C5=O)cn3)CC2)CC1 (centres unmarked) [Compound 36, 2-(2,6-dioxopiperidin-3-yl)-4-(((1-(1-(1-methylcyclopropane-1-carbonyl)piperidin-4-yl)-1H-pyrazol-4-yl)methyl)amino)isoindoline-1,3-dione] | < 100
9 | CN(C)CC(=O)N1CCC(n2cc(CNc3cccc4c3C(=O)N(C3CCC(=O)NC3=O)C4=O)cn2)CC1 (centres unmarked) [Compound 37, 4-(((1-(1-(dimethylglycyl)piperidin-4-yl)-1H-pyrazol-4-yl)methyl)amino)-2-(2,6-dioxopiperidin-3-yl)isoindoline-1,3-dione] | < 100
10 | O=C1CCC(N2C(=O)c3cccc(NCc4cnn(C5CCN(C(=O)[C@H]6CCCO6)CC5)c4)c3C2=O)C(=O)N1 (stereo partly drawn) [Compound 38, 2-(2,6-dioxopiperidin-3-yl)-4-(((1-(1-((R)-tetrahydrofuran-2-carbonyl)piperidin-4-yl)-1H-pyrazol-4-yl)methyl)amino)isoindoline-1,3-dione] | < 100
11 | O=C1CCC(N2C(=O)c3cccc(NCc4cnn(C5CCN(C(=O)c6cc(C7CC7)on6)CC5)c4)c3C2=O)C(=O)N1 (centres unmarked) [Compound 39, 4-(((1-(1-(5-cyclopropylisoxazole-3-carbonyl)piperidin-4-yl)-1H-pyrazol-4-yl)methyl)amino)-2-(2,6-dioxopiperidin-3-yl)isoindoline-1,3-dione] | < 100
12 | CCCCC(=O)N1CCC(n2cc(CNc3cccc4c3C(=O)N(C3CCC(=O)NC3=O)C4=O)cn2)CC1 (centres unmarked) [Compound 40, 2-(2,6-dioxopiperidin-3-yl)-4-(((1-(1-pentanoylpiperidin-4-yl)-1H-pyrazol-4-yl)methyl)amino)isoindoline-1,3-dione] | < 100
13 | CC(C)OCC(=O)N1CCC(n2cc(CNc3cccc4c3C(=O)N(C3CCC(=O)NC3=O)C4=O)cn2)CC1 (centres unmarked) [Compound 41, 2-(2,6-dioxopiperidin-3-yl)-4-(((1-(1-(2-isopropoxyacetyl)piperidin-4-yl)-1H-pyrazol-4-yl)methyl)amino)-isoindoline-1,3-dione] | < 100
14 | O=C1CCC(N2C(=O)c3cccc(NCc4cnn(C5CCN(C(=O)C6CCCOC6)CC5)c4)c3C2=O)C(=O)N1 (centres unmarked) [Compound 42, 2-(2,6-dioxopiperidin-3-yl)-4-(((1-(1-(tetrahydro-2H-pyran-3-carbonyl)piperidin-4-yl)-1H-pyrazol-4-yl)methyl)amino)isoindoline-1,3-dione] | < 100
15 | O=C1CCC(N2C(=O)c3cccc(NCc4cnn(C5CCN(C(=O)CN6CCOCC6)CC5)c4)c3C2=O)C(=O)N1 (centres unmarked) [Compound 43, 2-(2,6-dioxopiperidin-3-yl)-4-(((1-(1-(2-morpholinoacetyl)piperidin-4-yl)-1H-pyrazol-4-yl)methyl)amino)isoindoline-1,3-dione] | < 100
16 | O=C1CCC(N2C(=O)c3cccc(NCc4cnn(C5CCN(C(=O)C67CC8CC(CC(C8)C6)C7)CC5)c4)c3C2=O)C(=O)N1 (centres unmarked) [Compound 44, 4-(((1-(1-(adamantane-1-carbonyl)piperidin-4-yl)-1H-pyrazol-4-yl)methyl)amino)-2-(2,6-dioxopiperidin-3-yl)isoindoline-1,3-dione] | < 1
17 | CC1CC1C(=O)N1CCC(n2cc(CNc3cccc4c3C(=O)N(C3CCC(=O)NC3=O)C4=O)cn2)CC1 (centres unmarked) [Compound 45, 2-(2,6-dioxopiperidin-3-yl)-4-(((1-(1-(2-methylcyclopropane-1-carbonyl)piperidin-4-yl)-1H-pyrazol-4-yl)methyl)amino)isondoline-1,3-dione] | < 100
18 | CC(C)(O)CC(=O)N1CCC(n2cc(CNc3cccc4c3C(=O)N(C3CCC(=O)NC3=O)C4=O)cn2)CC1 (centres unmarked) [Compound 46, 2-(2,6-dioxopiperidin-3-yl)-4-(((1-(1-(3-hydroxy-3-methylbutanoyl)piperidin-4-yl)-1H-pyrazol-4-yl)methyl)amino)isoindoline-1,3-dione] | < 100
19 | O=C1CCC(N2C(=O)c3cccc(NCc4cnn(C5CCN(C(=O)CC67CC8CC(CC(C8)C6)C7)CC5)c4)c3C2=O)C(=O)N1 (centres unmarked) [Compound 47, 4-(((1-(1-(2-(adamantan-1-yl)acetyl)piperidin-4-yl)-1H-pyrazol-4-yl)methyl)amino)-2-(2,6-dioxopiperidin-3-yl)isoindoline-1,3-dione] | < 1
20 | C[C@@H](C(=O)N1CCC(n2cc(CNc3cccc4c3C(=O)N(C3CCC(=O)NC3=O)C4=O)cn2)CC1)c1ccccc1 (stereo partly drawn) [Compound 48, 2-(2,6-dioxopiperidin-3-yl)-4-(((1-(1-((R)-2-phenylpropanoyl)piperidin-4-yl)-1H-pyrazol-4-yl)methyl)amino)isoindoline-1,3-dione] | < 100
21 | CC(C)CC(=O)N1CCC(n2cc(CNc3cccc4c3C(=O)N(C3CCC(=O)NC3=O)C4=O)cn2)CC1 (centres unmarked) [Compound 49, 2-(2,6-dioxopiperidin-3-yl)-4-(((1-(1-(3-methylbutanoyl)piperidin-4-yl)-1H-pyrazol-4-yl)methyl)amino)isoindoline-1,3-dione] | < 100
22 | CC(C)(N)C(=O)N1CCC(n2cc(CNc3cccc4c3C(=O)N(C3CCC(=O)NC3=O)C4=O)cn2)CC1 (centres unmarked) [Compound 50, 4-(((1-(1-(2-amino-2-methylopropanoyl)piperidin-4-yl)-1H-pyrazol-4-yl)methyl)amino)-2-(2,6-dioxopiperidin-3-yl)isoindoline-1,3-dione] | < 100
23 | C[C@H](C(=O)N1CCC(n2cc(CNc3cccc4c3C(=O)N(C3CCC(=O)NC3=O)C4=O)cn2)CC1)c1ccccc1 (stereo partly drawn) [Compound 51, 2-(2,6-dioxopiperidin-3-yl)-4-(((1-(1-((S)-2-phenylpropanoyl)piperidin-4-yl)-1H-pyrazol-4-yl)methyl)amino)isoindoline-1,3-dione] | < 100
24 | CC(C)(O)C(=O)N1CCC(n2cc(CNc3cccc4c3C(=O)N(C3CCC(=O)NC3=O)C4=O)cn2)CC1 (centres unmarked) [Compound 52, 2-(2,6-dioxopiperidin-3-yl)-4-(((1-(1-(2-hydroxy-2-methylpropanoyl)piperidin-4-yl)-1H-pyrazol-4-yl)methyl)amino)isoindoline-1,3-dione] | < 100
25 | C[C@H](O)C(=O)N1CCC(n2cc(CNc3cccc4c3C(=O)N(C3CCC(=O)NC3=O)C4=O)cn2)CC1 (stereo partly drawn) [Compound 53, 2-(2,6-dioxopiperidin-3-yl)-4-(((1-(1-((S)-2-hydroxypropanoyl)piperidin-4-yl)-1H-pyrazol-4-yl)methyl)amino)isoindoline-1,3-dione] | < 100
26 | CN1CCC(C)(C(=O)N2CCC(n3cc(CNc4cccc5c4C(=O)N(C4CCC(=O)NC4=O)C5=O)cn3)CC2)CC1 (centres unmarked) [Compound 55, 4-(((1-(1-(1,4-dimethylpiperidine-4-carbonyl)piperidin-4-yl)-1H-pyrazol-4-yl)methyl)amino)-2-(2,6-dioxopiperidin-3-yl)isoindoline-1,3-dione] | < 100
